Assay results reported in publication PMC11271312 (Nature Communications, 2024).

Experiments:
[1] = plasma from minipigs dosed intravenously with insulin icodec (2 nmol/kg); settings: Göttingen Minipigs, up to 10 days after dosing
[2] = 80% pooled plasma from humans and 20% PBS (pH 7.4); settings: human, 37 °C, up to […]
[3] = 80% pooled plasma from dogs and 20% PBS (pH 7.4); settings: dog, 37 °C, up to […]
[4] = 80% pooled plasma from rats and 20% PBS (pH 7.4); settings: rat, 37 °C, up to […]
[5] = 80% pooled plasma from minipigs and 20% PBS (pH 7.4); settings: minipig, 37 °C, up to […]

Substance	fragment found [1]	fragment found [2]	fragment found [3]	fragment found [4]	fragment found [5]
A14E B16H B25H B29Nε-C20 diacid-LγGlu–2xAdo desB30 human insulin	free insulin icodec B-chain (disulphide Cys 7–Cys 19)	insulin B-chain with internal disulphide Cys 7–Cys 19, 24 h	insulin B-chain with internal disulphide Cys 7–Cys 19, 96 h	insulin B-chain with internal disulphide Cys 7–Cys 19, 24 h	insulin B-chain with internal disulphide Cys 7–Cys 19, 48 h
A14E, B25H, desB30 | C18 diacid				B-chain (internal disulphide bond connecting Cys 7 with Cys 19), 48 h	
A14E, B25H, desB30 | C20 diacid		B-chain (internal disulphide bond connecting Cys 7 with Cys 19), 96 h		B-chain (internal disulphide bond connecting Cys 7 with Cys 19), 24 h	B-chain (internal disulphide bond connecting Cys 7 with Cys 19), 168 h
A14E, desB30 | C18 diacid				B-chain (internal disulphide bond connecting Cys 7 with Cys 19), 24 h	
B16H, desB30 | C18 diacid		B-chain (internal disulphide bond connecting Cys 7 with Cys 19), 24 h	B-chain (internal disulphide bond connecting Cys 7 with Cys 19), 24 h	B-chain (internal disulphide bond connecting Cys 7 with Cys 19), 24 h	B-chain (internal disulphide bond connecting Cys 7 with Cys 19), 5 h
B25H, desB30 | C18 diacid				B-chain (internal disulphide bond connecting Cys 7 with Cys 19), 5 h	
desB30 | C18 diacid				B-chain (internal disulphide bond connecting Cys 7 with Cys 19), 2.5 h	
